The compounds below were run against Factor D (Homo sapiens (Human), UniProt P00746) (assay: biochemical). Details: read-out: IC50.
Factor D, sequence (P00746 26-253): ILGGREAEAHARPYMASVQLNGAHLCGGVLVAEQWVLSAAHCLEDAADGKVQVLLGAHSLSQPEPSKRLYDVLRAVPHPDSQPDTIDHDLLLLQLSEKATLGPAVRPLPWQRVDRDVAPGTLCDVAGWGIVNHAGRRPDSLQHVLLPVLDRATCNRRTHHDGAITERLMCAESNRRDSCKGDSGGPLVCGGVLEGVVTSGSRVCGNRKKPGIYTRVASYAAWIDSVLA
Format: biochemical
In the case of `Cc1cc2c(C(N)=O)nn(CC(=O)N3[C@H](C(=O)Nc4cccc(Br)n4)C[C@@]4(C)C[C@@H]34)c2cn1` [Example 745, 1-{2-[(1R,3S,5R)-3-(6-Bromo-pyridin-2-ylcarbamoyl)-5-methyl-2-aza-bicyclo[3.1.0]hex-2-yl]-2-oxo-ethyl}-5-methyl-1H-pyrazolo[3,4-c]pyridine-3-carboxylic acid amide], the IC50 is reported as 0.005 µM. Work on `NC(=O)c1nn(CC(=O)N2C[C@H]3C[C@H]3[C@H]2C(=O)Nc2cccc(Br)n2)c2ccccc12` [Example 746, 1-{2-[(1R,2S,5S)-2-(6-Bromo-pyridin-2-ylcarbamoyl)-3-aza-bicyclo[3.1.0]hex-3-yl]-2-oxo-ethyl}-1H-indazole-3-carboxylic acid amide] yielded an IC50 of 0.007 µM. Work on `Cc1nccc2c(C(N)=O)nn(CC(=O)N3[C@@H]4C[C@@H]4C[C@H]3C(=O)Nc3cccc(Br)n3)c12` [Example 747, 1-{2-[(1R,3S,5R)-3-(6-Bromo-pyridin-2-ylcarbamoyl)-2-aza-bicyclo[3.1.0]hex-2-yl]-2-oxo-ethyl}-7-methyl-1H-pyrazolo [3,4-c]pyridine-3-carboxylic acid amide] yielded an IC50 of 0.013 µM. Compound `CC(=O)c1nn(CC(=O)N2[C@@H]3C[C@@H]3C[C@H]2C(=O)Nc2cccc(Br)n2)c2ccc(OCc3ncccn3)cc12` [Example 748, (1R,3S,5R)-2-{2-[3-Acetyl-5-(pyrimidin-2-ylmethoxy)-indazol-1-yl]-acetyl}-2-aza-bicyclo[3.1.0]hexane-3-carboxylic acid (6-bromo-pyridin-2-yl)-amide] has an IC50 of 0.004 µM. Compound `NC(=O)c1nn(CC(=O)N2[C@@H]3C[C@@H]3C[C@H]2C(=O)Nc2cccc(Br)n2)c2cc(Cl)ccc12` [Example 749, 1-{2-[(1R,3S,5R)-3-(6-Bromo-pyridin-2-ylcarbamoyl)-2-aza-bicyclo[3.1.0]hex-2-yl]-2-oxo-ethyl}-6-chloro-1H-indazole-3-carboxylic acid amide] has an IC50 of 0.004 µM. With `CC(=O)c1cn(CC(=O)N2[C@@H]3C[C@@H]3C[C@H]2C(=O)Nc2cccc(Br)n2)c2ncccc12` [Example 750, (1R,3S,5R)-2-[2-(3-Acetyl-pyrrolo[2,3-b]pyridin-1-yl)-acetyl]-2-aza-bicyclo[3.1.0] hexane-3-carboxylic acid (6-bromo-pyridin-2-yl)-amide] the IC50 was 0.034 µM. With `CC(=O)c1cn(CC(=O)N2[C@@H]3C[C@@H]3C[C@H]2C(=O)Nc2cccc(Br)n2)c2ccncc12` [Example 751, (1R,3S,5R)-2-[2-(3-Acetyl-pyrrolo[3,2-c]pyridin-1-yl)-acetyl]-2-aza-bicyclo[3.1.0] hexane-3-carboxylic acid (6-bromo-pyridin-2-yl)-amide] the IC50 was 0.081 µM. `CC(=O)c1cn(CC(=O)N2[C@@H]3C[C@@H]3C[C@H]2C(=O)Nc2cccc(Br)n2)c2nnccc12` [Example 752, (1R,3S,5R)-2-[2-(5-Acetyl-pyrrolo[2,3-c]pyridazin-7-yl)-acetyl]-2-aza-bicyclo[3.1.0] hexane-3-carboxylic acid (6-bromo-pyridin-2-yl)-amide] was tested, and the IC50 was 0.095 µM. `CO[C@H]1[C@@H](C(=O)Nc2cccc(Br)n2)N(C(=O)Cn2nc(C(N)=O)c3ccccc32)C[C@@H]1F` [Example 754, 1-{2-[(2S,3S,4S)-2-(6-Bromo-pyridin-2-ylcarbamoyl)-4-fluoro-3-methoxy-pyrrolidin-1-yl]-2-oxo-ethyl}-1H-indazole-3-carboxylic acid amide] was tested, and the IC50 was 0.005 µM. For `CO[C@H]1[C@@H](C(=O)Nc2cccc(Br)c2F)N(C(=O)Cn2nc(C(N)=O)c3ccccc32)C[C@@H]1F` [Example 755, 1-{2-[(2S,3S,4S)-2-(3-Bromo-2-fluoro-phenylcarbamoyl)-4-fluoro-3-methoxy-pyrrolidin-1-yl]-2-oxo-ethyl}-1H-indazole-3-carboxylic acid amide], the IC50 was 0.017 µM. `CO[C@H]1[C@@H](C(=O)Nc2cccc(Br)n2)N(C(=O)Cn2nc(C(C)=O)c3ccccc32)C[C@@H]1F` [Example 756, (2S,3S,4S)-1-[2-(3-Acetyl-indazole-1-yl)-acetyl]-4-fluoro-3-methoxy-pyrrolidine-2-carboxylic acid (6-bromo-pyridin-2-yl)-amide] was tested, and the IC50 was 0.007 µM. `CC(=O)c1nn(CC(=O)N2[C@@H]3C[C@@H]3C[C@H]2C(=O)Nc2cncc(Br)n2)c2ccccc12` [Example 757, (1R,3S,5R)-2-[2-(3-Acetyl-indazol-1-yl)-acetyl]-2-aza-bicyclo[3.1.0]hexane-3-carboxylic acid (6-bromo-pyrazin-2-yl)-amide] was tested, and the IC50 was 0.003 µM. In the case of `NC(=O)c1nn(CC(=O)N2[C@H](C(=O)Nc3cccc(OC(F)(F)F)c3F)C[C@@]3(CO)C[C@@H]23)c2ccccc12` [Example 758, 1-{2-[(1R,3S,5S)-3-(2-Fluoro-3-trifluoromethoxy-phenylcarbamoyl)-5-hydroxymethyl-2-aza-bicyclo[3.1.0]hex-2-yl]-2-oxo-ethyl}-1H-indazole-3-carboxylic acid amide], the IC50 is reported as 0.064 µM. Compound `NC(=O)c1nn(CC(=O)N2[C@H](C(=O)Nc3cccc(Br)c3F)C[C@@]3(CO)C[C@@H]23)c2ccccc12` [Example 759, 1-{2-[(1R,3S,5S)-3-(3-Bromo-2-fluoro-phenylcarbamoyl)-5-hydroxymethyl-2-aza-bicyclo[3.1.0]hex-2-yl]-2-oxo-ethyl}-1H-indazole-3-carboxylic acid amide] has an IC50 of 0.009 µM. `NC(=O)c1nn(CC(=O)N2[C@H](C(=O)Nc3cccc(Br)n3)C[C@@]3(CO)C[C@@H]23)c2ccccc12` [Example 760, 1-{2-[(1R,3S,5S)-3-(6-Bromo-pyridin-2-ylcarbamoyl)-5-hydroxymethyl-2-aza-bicyclo[3.1.0]hex-2-yl]-2-oxo-ethyl}-1H-indazole-3-carboxylic acid amide] was tested, and the IC50 was 0.012 µM. Compound `NC(=O)n1cc(NC(=O)N2C[C@H]3C[C@H]3[C@H]2C(=O)Nc2cccc(Br)n2)c2ccccc21` [Example 763, (1R,2S,5S)-3-Aza-bicyclo[3.1.0]hexane-2,3-dicarboxylic acid 2-[(6-bromo-pyridin-2-yl)-amide]3-[(1-carbamoyl-1H-indol-3-yl)-amide]] has an IC50 of 0.014 µM. Compound `NC(=O)n1cc(NC(=O)N2C[C@H](F)C[C@H]2C(=O)Nc2cccc(Br)n2)c2ccccc21` [Example 764, (2S,4R)-4-Fluoro-pyrrolidine-1,2-dicarboxylic acid 2-[(6-bromo-pyridin-2-yl)-amide]1-[(1-carbamoyl-1H-indol-3-yl)-amide]] has an IC50 of 0.004 µM. Work on `CCOC(=O)[C@H](CC1CCCCC1)NC(=O)[C@@H]1C[C@H]2C[C@H]2N1C(=O)Cn1nc(C(C)=O)c2cccnc21` [Example 765] yielded an IC50 of 0.211 µM. In the case of `COC(=O)[C@H](CC(C)C)NC(=O)[C@@H]1C[C@H]2C[C@H]2N1C(=O)Cn1nc(C(C)=O)c2cccnc21` [Example 766, (S)-2-({(1R,3S,5R)-2-[2-(3-Acetyl-pyrazolo[3,4-b]pyridin-1-yl)-acetyl]-2-aza-bicyclo[3.1.0]hexane-3-carbonyl}-amino)-4-methyl-pentanoic acid methyl ester], the IC50 is reported as 0.216 µM. Compound `COC(=O)C(CCC(F)(F)F)NC(=O)[C@@H]1C[C@H]2C[C@H]2N1C(=O)Cn1nc(C(C)=O)c2cccnc21` (stereo partly drawn) [Example 767, 2-({(1R,3S,5R)-2-[2-(3-Acetyl-pyrazolo[3,4-b]pyridin-1-yl)-acetyl]-2-aza-bicyclo[3.1.0]hexane-3-carbonyl}-amino)-5,5,5-trifluoro-pentanoic acid methyl ester] has an IC50 of 0.346 µM. Work on `CC(=O)c1nn(CC(=O)N2[C@@H]3C[C@@H]3C[C@H]2C(=O)Nc2nccc(C(F)(F)F)n2)c2ncccc12` [Example 769, (1R,3S,5R)-2-[2-(3-Acetyl-pyrazolo[3,4-b]pyridin-1-yl)-acetyl]-2-aza-bicyclo[3.1.0]hexane-3-carboxylic acid (4-trifluoromethyl-pyrimidin-2-yl)-amide] yielded an IC50 of 0.378 µM. Compound `COCCOc1ccc2c(c1)c(C(C)=O)nn2CC(=O)N1[C@@H]2C[C@@H]2C[C@H]1C(=O)Nc1cccc(OC(F)(F)F)c1F` [Example 770, (1R,3S,5R)-2-{2-[3-Acetyl-5-(2-methoxy-ethoxy)-indazol-1-yl]-acetyl}-2-aza-bicyclo[3.1.0]hexane-3-carboxylic acid (2-fluoro-3-trifluoromethoxy-phenyl)-amide] has an IC50 of 0.009 µM. In the case of `CC(=O)c1nn(CC(=O)N2[C@@H]3C[C@@H]3C[C@H]2C(=O)Nc2cccc(OC(F)(F)F)c2F)c2ccc(OC(C)C#N)cc12` (stereo partly drawn) [Example 771, (1R,3S,5R)-2-{2-[3-Acetyl-5-(cyano-methyl-methoxy)-indazol-1-yl]-acetyl}-2-aza-bicyclo[3.1.0]hexane-3-carboxylic acid (2-fluoro-3-trifluoromethoxy-phenyl)-amide], the IC50 is reported as 0.008 µM. With `CC(=O)c1nn(CC(=O)N2[C@@H]3C[C@@H]3C[C@H]2C(=O)Nc2cccc(OC(F)(F)F)c2F)c2ccc(OCC3CCCO3)cc12` (stereo partly drawn) [Example 772, (1R,3S,5R)-2-{2-[3-Acetyl-5-(tetrahydro-furan-2-ylmethoxy)-indazol-1-yl]-acetyl}-2-aza-bicyclo[3.1.0]hexane-3-carboxylic acid (2-fluoro-3-trifluoromethoxy-phenyl)-amide] the IC50 was 0.007 µM. Compound `CC(=O)c1cn(CC(=O)N2C[C@H](F)[C@@H](F)[C@H]2C(=O)NCc2cccc(Cl)c2F)c2ccccc12` [Example 773, (2R,3S,4S)-1-[2-(3-Acetyl-indol-1-yl)-acetyl]-3,4-difluoro-pyrrolidine-2-carboxylic acid 3-chloro-2-fluoro-benzylamide] has an IC50 of 0.028 µM. Work on “(1R,3S,5R)-2-[2-(3-Acetyl-6- amino-pyrrolo[2,3-b]pyridin-1- yl)-acetyl]-2-aza-bicyclo [3.1.0]hexane-3-carboxylic acid 3-chloro-2-fluoro- benzylamide [Example 676]” yielded an IC50 of 0.011 µM. “(1R,3S,5S)-5-Hydroxymethyl- 2-aza-bicyclo[3.1.0]hexane- 2,3-dicarboxylic acid 3-(3- chloro-2-fluoro-benzylamide) 2-[(1-methylcarbamoyl-1H- indol-3-yl)-amide] [Example 265]” showed an IC50 of 0.083 µM. For “(2S,4R)-4-Fluoro-pyrrolidine-1,2-dicarboxylic acid 1-[(3-carbamoyl-indolizin-1-yl)-amide]2-[(3-trifluoromethoxy-phenyl)-amide] [Example 122]”, the IC50 was 0.15 µM. “(2S,4S)-4-Amino-pyrrolidine-1,2-dicarboxylic acid 1-[(1-carbamoyl-1H-indol-3-yl)-amide] 2-[(2-phenoxy-ethyl)-amide] [Example 91]” showed an IC50 of 2.95 µM.

Reference: US9085555B2, “Complement pathway modulators and uses thereof” (priority 2011, dated 2015)
